Measured values published in patent publication US5684151A, “1-arylsulphonyl, arylcarbonyl and 1-arylphosphonyl-3-phenyl-1,4,5,6-tetrahydropyridazines” (priority 1995, dated 1997).
pIC50: −log10 of the molar value. Read-outs that look alike come from different tables or passages of the source.

Assays:
[1] = tested on: mouse (MC3T3-E1) and human (TE-85) osteoblast-line cells; type: cell-based
How it was run: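 Proliferation was read as ^3H-thymidine (0.4 μCi) uptake during a 4 h pulse, which started 20 h after compound addition. Before dosing, cells sat 24 h in 0.1% FBS. Values are % times control (100%).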

[2] = tested on: Human T47D breast carcinoma cells; assay: Ex vivo progestational test (T47D proliferation); type: cell-based; settings: SC200, 3H-thymidine incorporation
Method: The progestational activity of the compounds was accessed by their ability to stimulate proliferation of human breast carcinoma cells. Proliferation was measured as the ability to stimulate ^3 H-thymidine incorporation into these cells in vitro. Human T47D breast carcinoma cells (American Type Tissue Collection #133-HTB) were maintained in media consisting or RPMI 1640 supplemented with 10% fetal bovine serum, 10 ug/ml insulin, 10 U/ml pennicillin, 100 ug/ml streptomycin, and 2 mM L-glutamine. Monolayer cell cultures were trypsinized and washed in assay media consisting of phenol red-free RPMI 1640 supplemented with 5% charcoal-stripped, fetal bovine serum, and the other ingredients listed above. Cells were then plated in a 96-well plate. After a 48-hour incubation period at 37° C., the conditioned media was removed and replaced with fresh media containing test compounds in DMSO (0.1% DMSO final concentration). The cell cultures were incubated for 18 to 20 hours at 37° C. ^3 H-thymidine was then added to each well and the cell cultures were incubated at 37° C. for an additional 4 hours. Labelling was stopped by addition of un labelled thymidine. The cultures were washed twice, trypsinized and then harvested onto a filter mat. Incorporated ^3 -H-thymidine was measured by liquid scintillation counting. Data was expressed as a percent stimulation above control level which was set at 100%. An SC200 value was calculated as the concentration of test material needed to stimulate ^3 H-thymidine incorporation 200% of control.
Aspects of the application of the procedure used are described in the following: C. Christensen, D. Gunter, D. Saunders and V. Malviya, Gynecol. Oncol., 28, 25 (1987); J. Puzas, R. Drivdahl, G. Howard and D. Baylink, Proc. Soc. Exp. Biol. Med., 166, 113 (1981); and I. Keydar, L. Chen, S. Karby, F. Weiss, J. Delarea, M. Raduy, S. Chaitcik and H. Brenner, Eur. J. Cancer, 15, 659 (1979)

[3] = target: T1, progestin receptor from rabbit uterus (Oryctolagus cuniculus, UniProt P06186); assay: Progestin receptor binding (3H-R5020 displacement); settings: rabbit uterine cytosol, 4° C., 18 h, read-out: IC50: Binding affinity for the progestin receptor from rabbit uterus
T1 construct: Cytosolic progestin receptor were obtained by mixing rabbit uterine tissue with a Tris buffer; from tissue; host or cells: rabbit uterus cytosol
How it was run: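 Displacement of the radioligand 3H-R5020 was measured in cytosol from homogenized rabbit uterus (pH 7.4 Tris/EDTA/DTT/molybdate buffer), with compounds at 5% final DMSO and about 18 h at 4 °C. Charcoal removed free ligand, scintillation counting quantified bound ligand, and IC50 was the concentration displacing half.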

T1 sequence (P06186 whole entry): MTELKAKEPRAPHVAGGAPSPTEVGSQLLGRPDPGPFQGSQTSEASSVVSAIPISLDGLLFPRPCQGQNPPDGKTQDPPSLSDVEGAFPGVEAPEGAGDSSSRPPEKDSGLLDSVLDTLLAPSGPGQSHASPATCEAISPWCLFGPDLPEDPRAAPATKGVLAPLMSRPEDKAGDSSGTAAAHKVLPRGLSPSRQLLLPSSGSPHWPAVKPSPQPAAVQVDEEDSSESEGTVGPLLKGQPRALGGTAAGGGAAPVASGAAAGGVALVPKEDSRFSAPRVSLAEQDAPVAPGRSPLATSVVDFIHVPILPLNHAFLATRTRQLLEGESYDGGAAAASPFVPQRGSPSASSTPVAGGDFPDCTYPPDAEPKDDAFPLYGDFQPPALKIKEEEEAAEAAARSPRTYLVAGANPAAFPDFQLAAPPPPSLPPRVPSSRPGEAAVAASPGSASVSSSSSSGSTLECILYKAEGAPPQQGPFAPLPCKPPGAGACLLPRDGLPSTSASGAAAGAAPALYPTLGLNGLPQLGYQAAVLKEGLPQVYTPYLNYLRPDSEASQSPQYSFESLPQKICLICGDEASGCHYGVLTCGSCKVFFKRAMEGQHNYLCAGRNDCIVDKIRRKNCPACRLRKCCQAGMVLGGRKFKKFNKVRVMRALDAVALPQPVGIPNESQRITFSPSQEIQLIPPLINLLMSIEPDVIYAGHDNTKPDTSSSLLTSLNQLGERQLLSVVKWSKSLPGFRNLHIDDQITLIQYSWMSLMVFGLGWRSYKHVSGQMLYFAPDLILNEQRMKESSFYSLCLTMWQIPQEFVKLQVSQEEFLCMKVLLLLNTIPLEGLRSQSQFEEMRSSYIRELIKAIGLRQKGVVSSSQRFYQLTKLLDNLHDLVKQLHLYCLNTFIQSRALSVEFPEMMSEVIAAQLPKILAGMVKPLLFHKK

For `O=S(=O)(c1cccc2ccccc12)N1CCCC(c2ccc(Cl)cc2)=N1` [Compound 15], the “Osteoblast Cell Proliferation, 3H-thymidine incorporation vs control (100%)” value (“Osteoblast Cell Proliferation … (100%)” below) ([1]; 10^-6) was 94%, the “Osteoblast Cell Proliferation … (100%)” value ([1]; 10^-7) was 108% and the “Osteoblast Cell Proliferation … (100%)” value ([1]; 10^-8) was 114%. For the same compound, the “Osteoblast Cell Proliferation … (100%)” value ([1]; 10^-9) was 123%, the “Osteoblast Cell Proliferation … (100%)” value ([1]; 10^-10) was 123% and the “T47D: Concentration to elicit a 200% increase in T47D Human breast cell proliferation” value [2] was 10000.

For `O=[N+]([O-])c1cc(S(=O)(=O)N2CCCC(c3ccc(Cl)c(Cl)c3)=N2)ccc1Cl` [Compound 111], the pIC50 [3] was 7.80 and the “T47D: Concentration to elicit a 200% increase in T47D Human breast cell proliferation” value [2] was 10000.

With `O=S(=O)(c1ccc(I)cc1)N1CCCC(c2ccc3ccccc3c2)=N1` [Compound 119, 3-(naphth-2-yl)-1-(4-iodobenzenesulphonyl)-1,4,5,6-tetrahydropyridazine] the pIC50 [3] was 8.60 and the “T47D: Concentration to elicit a 200% increase in T47D Human breast cell proliferation” value [2] was 868.

With `O=S(=O)(/C=C/c1ccccc1)N1CCCC(c2ccc3ccccc3c2)=N1` [Compound 174] the pIC50 [3] was 7.64 and the “T47D: Concentration to elicit a 200% increase in T47D Human breast cell proliferation” value [2] was 10000.

In the case of `CCCCc1ccc(C2=NN(S(=O)(=O)c3cc(Cl)ccc3Cl)CCC2)cc1` [Compound 69], the pIC50 [3] was 5.00 and the “T47D: Concentration to elicit a 200% increase in T47D Human breast cell proliferation” value [2] was 10000.

For `O=S(=O)(c1cccc(Cl)c1Cl)N1CCCC(c2ccc(Cl)c(Cl)c2)=N1` [Compound 105, 3-(3,4-dichlorophenyl)-1-(2,3-dichlorobenzenesulphonyl)-1,4,5,6-tetrahydropyridazine], the pIC50 [3] was 8.73 and the “T47D: Concentration to elicit a 200% increase in T47D Human breast cell proliferation” value [2] was 1070.

In the case of `O=S(=O)(/C=C/c1ccc(Cl)cc1)N1CCCC(c2ccc(Cl)c(C(F)(F)F)c2)=N1` [Compound 178], the pIC50 [3] was 8.29 and the “T47D: Concentration to elicit a 200% increase in T47D Human breast cell proliferation” value [2] was 164.

With `O=S(=O)(c1cc(Cl)cc(Cl)c1)N1CCCC(c2ccc(Cl)c(Cl)c2)=N1` [Compound 104] the pIC50 [3] was 9.07 and the “T47D: Concentration to elicit a 200% increase in T47D Human breast cell proliferation” value [2] was 76.

With `O=S(=O)(c1cc(Cl)ccc1Cl)N1CCCC(c2ccc(Cl)c(C(F)(F)F)c2)=N1` [Compound 79, 3-(4-chloro-3-trifluoromethylphenyl)-1-(2,5-dichlorobenzenesulphonyl)-1,4,5,6-tetrahydropyridazine] the pIC50 [3] was 9.05 and the “T47D: Concentration to elicit a 200% increase in T47D Human breast cell proliferation” value [2] was 10000.

For `Cc1ccc(S(=O)(=O)N2CCCC(c3ccc4ccccc4c3)=N2)cc1` [Compound 120], the pIC50 [3] was 7.88 and the “T47D: Concentration to elicit a 200% increase in T47D Human breast cell proliferation” value [2] was 831.

With `CCCCc1ccc(C2=NN(S(=O)(=O)c3ccc(Cl)cc3)CCC2)cc1` [Compound 73] the pIC50 [3] was 5.00 and the “T47D: Concentration to elicit a 200% increase in T47D Human breast cell proliferation” value [2] was 10000.

With `O=S(=O)(c1ccccc1)N1CCCC(c2cccc(Cl)c2)=N1` [Compound 95] the pIC50 [3] was 7.99 and the “T47D: Concentration to elicit a 200% increase in T47D Human breast cell proliferation” value [2] was 10000.

For `CCCCc1ccc(C2=NN(S(=O)(=O)c3ccc(C)cc3)CCC2)cc1` [Compound 74], the pIC50 [3] was 5.00 and the “T47D: Concentration to elicit a 200% increase in T47D Human breast cell proliferation” value [2] was 10000.

For `O=C(c1cccc(C(F)(F)F)c1)N1CCCC(c2ccc(Cl)c(Cl)c2)=N1` [Compound 218], the “Osteoblast Cell Proliferation … (100%)” value ([1]; 10^-6) was 112%, the “Osteoblast Cell Proliferation … (100%)” value ([1]; 10^-7) was 115% and the “Osteoblast Cell Proliferation … (100%)” value ([1]; 10^-8) was 119%. For the same compound, the “Osteoblast Cell Proliferation … (100%)” value ([1]; 10^-9) was 107%, the “Osteoblast Cell Proliferation … (100%)” value ([1]; 10^-10) was 109% and the pIC50 [3] was 5.70.

For `O=[N+]([O-])c1ccc(S(=O)(=O)N2CCCC(c3ccc(Cl)cc3)=N2)cc1` [Compound 4], the “Osteoblast Cell Proliferation … (100%)” value ([1]; 10^-6) was 108%, the “Osteoblast Cell Proliferation … (100%)” value ([1]; 10^-7) was 111% and the “Osteoblast Cell Proliferation … (100%)” value ([1]; 10^-8) was 155%. For the same compound, the “Osteoblast Cell Proliferation … (100%)” value ([1]; 10^-9) was 153%, the “Osteoblast Cell Proliferation … (100%)” value ([1]; 10^-10) was 158% and the pIC50 [3] was 6.70.

In the case of `Cc1ccc(S(=O)(=O)N2N=C(c3ccccc3)CC3Cc4ccccc4C32)cc1` (stereo not shown) [Compound 158, 1,4,4a,9a,-Tetrahydro-4-(4-methylbenzenesulfonyl)-2-phenyl-3,4-diazafluorene Hemihydrate], the “Osteoblast Cell Proliferation … (100%)” value ([1]; 10^-6) was 105%, the “Osteoblast Cell Proliferation … (100%)” value ([1]; 10^-7) was 102% and the “Osteoblast Cell Proliferation … (100%)” value ([1]; 10^-8) was 122%. For the same compound, the “Osteoblast Cell Proliferation … (100%)” value ([1]; 10^-9) was 114%, the “Osteoblast Cell Proliferation … (100%)” value ([1]; 10^-10) was 119% and the pIC50 [3] was 5.52.

`COc1ccc(C2=NN(C(=O)c3cccc(Cl)c3)CCC2)cc1` [Compound 188] was tested, and the “Osteoblast Cell Proliferation … (100%)” value ([1]; 10^-6) was 105%, the “Osteoblast Cell Proliferation … (100%)” value ([1]; 10^-7) was 129% and the “Osteoblast Cell Proliferation … (100%)” value ([1]; 10^-8) was 130%. For the same compound, the “Osteoblast Cell Proliferation … (100%)” value ([1]; 10^-9) was 135%, the “Osteoblast Cell Proliferation … (100%)” value ([1]; 10^-10) was 137% and the pIC50 [3] was 4.00.

With `O=C(c1ccc(Cl)c(Cl)c1)N1CCCC(c2ccc(Cl)c(Cl)c2)=N1` [Compound 216] the “Osteoblast Cell Proliferation … (100%)” value ([1]; 10^-6) was 105%, the “Osteoblast Cell Proliferation … (100%)” value ([1]; 10^-7) was 108% and the “Osteoblast Cell Proliferation … (100%)” value ([1]; 10^-8) was 105%. The “Osteoblast Cell Proliferation … (100%)” value ([1]; 10^-9) was 96%, the “Osteoblast Cell Proliferation … (100%)” value ([1]; 10^-10) was 100% and the pIC50 [3] was 6.99.

With `COc1ccc(C2=NN(S(=O)(=O)c3ccc(C)cc3)CCC2)cc1` [Compound 3] the “Osteoblast Cell Proliferation … (100%)” value ([1]; 10^-6) was 92%, the “Osteoblast Cell Proliferation … (100%)” value ([1]; 10^-7) was 110% and the “Osteoblast Cell Proliferation … (100%)” value ([1]; 10^-8) was 115%. For the same compound, the “Osteoblast Cell Proliferation … (100%)” value ([1]; 10^-9) was 138%, the “Osteoblast Cell Proliferation … (100%)” value ([1]; 10^-10) was 118% and the pIC50 [3] was 5.00.

For `CC(C)OP(=O)(c1ccccc1)N1CCCC(c2ccc(Cl)c(Cl)c2)=N1` (stereo not shown) [Compound 256], the “Osteoblast Cell Proliferation … (100%)” value ([1]; 10^-6) was 97%, the “Osteoblast Cell Proliferation … (100%)” value ([1]; 10^-7) was 100% and the “Osteoblast Cell Proliferation … (100%)” value ([1]; 10^-8) was 104%. For the same compound, the “Osteoblast Cell Proliferation … (100%)” value ([1]; 10^-9) was 128%, the “Osteoblast Cell Proliferation … (100%)” value ([1]; 10^-10) was 116% and the pIC50 [3] was 7.02.

In the case of `O=S(=O)(c1ccc(Cl)cc1)N1CCCC(c2ccc(-c3ccccc3)cc2)=N1` [Compound 84], the “Osteoblast Cell Proliferation … (100%)” value ([1]; 10^-6) was 108%, the “Osteoblast Cell Proliferation … (100%)” value ([1]; 10^-7) was 119% and the “Osteoblast Cell Proliferation … (100%)” value ([1]; 10^-8) was 130%. The “Osteoblast Cell Proliferation … (100%)” value ([1]; 10^-9) was 127%, the “Osteoblast Cell Proliferation … (100%)” value ([1]; 10^-10) was 122% and the pIC50 [3] was 6.00.

`O=S(=O)(c1ccc(Cl)c(Cl)c1)N1CCCC(c2ccc(Cl)c(C(F)(F)F)c2)=N1` [Compound 81] was tested, and the “Osteoblast Cell Proliferation … (100%)” value ([1]; 10^-7) was 110%, the “Osteoblast Cell Proliferation … (100%)” value ([1]; 10^-8) was 119% and the “Osteoblast Cell Proliferation … (100%)” value ([1]; 10^-9) was 119%. For the same compound, the “Osteoblast Cell Proliferation … (100%)” value ([1]; 10^-10) was 128% and the pIC50 [3] was 7.78.

For `COC(=O)c1ccccc1S(=O)(=O)N1CCCC(c2ccc(Cl)c(Cl)c2)=N1` [Compound 47], the “Osteoblast Cell Proliferation … (100%)” value ([1]; 10^-6) was 109%, the “Osteoblast Cell Proliferation … (100%)” value ([1]; 10^-7) was 112% and the “Osteoblast Cell Proliferation … (100%)” value ([1]; 10^-8) was 113%. For the same compound, the “Osteoblast Cell Proliferation … (100%)” value ([1]; 10^-9) was 115%, the “Osteoblast Cell Proliferation … (100%)” value ([1]; 10^-10) was 123% and the pIC50 [3] was 7.70.

In the case of `O=S(=O)(c1ccc2ccccc2c1)N1CCCC(c2ccc(-c3ccccc3)cc2)=N1` [Compound 85], the “Osteoblast Cell Proliferation … (100%)” value ([1]; 10^-6) was 99%, the “Osteoblast Cell Proliferation … (100%)” value ([1]; 10^-7) was 80% and the “Osteoblast Cell Proliferation … (100%)” value ([1]; 10^-8) was 76%. For the same compound, the “Osteoblast Cell Proliferation … (100%)” value ([1]; 10^-9) was 54%, the “Osteoblast Cell Proliferation … (100%)” value ([1]; 10^-10) was 48% and the pIC50 [3] was 6.00.

For `O=S(=O)(c1cccc(Cl)c1)N1CCCC(c2ccc(Cl)c(Cl)c2)=N1` [Compound 109], the pIC50 [3] was 8.96 and the “T47D: Concentration to elicit a 200% increase in T47D Human breast cell proliferation” value [2] was 1620.
